In test [1] the test system is NEU3-induced IL-6 production by human PBMC. Description: NEU3-induced extracellular IL-6 accumulation by human PBMC (IL-6 concentration assay). Format: cell-based. The following applies: NEU3, serum-free medium, 48 hours. Here is the method: Human peripheral blood was collected from healthy volunteers who gave written consent and with specific approval from the Texas A&M University human subjects review board. Peripheral blood mononuclear cells (PBMC) were isolated from the blood using Ficoll-Paque density gradient centrifugation (95021-205, GE Healthcare, Cincinnati, OH) following the manufacture's protocol. PBMC were cultured at […] in 96-well flat bottom tissue culture plates (type 62406-081; […] Louis, MO)) in a final volume of 200 μl per well. […] The sialidases were diluted in 100 μl of the same medium the cells were in, and added to 100 μl of cells at 1×10^5 cells/ml to make the total volume in a well 200 μl with 1×10^4 cells/well. The cells were then incubated at 37° C. in a humidified incubator with 5% CO2. The culture supernatants were collected after two or five days and assayed using an IL-6 ELISA kit (430501, Biolegend, San Diego, CA) following the manufacturer's protocol, reading absorbance with a SynergyMX plate reader (BioTek, Winooski, VT). Statistics were analyzed using Prism software (Graphpad, La Jolla, CA). At least three different donors were used for each assay. […] IL-6 in the culture supernatant was then assayed as described above. At least three different donors were used for each assay.

Test [2] deals with bleomycin-induced pulmonary fibrosis, C57BL/6 mice. Description: Bleomycin-induced pulmonary fibrosis in mice. The following applies: for fibrosis-associated inflammation (BAL cell counts, CD11b, CD11c, CD45, Ly6G, Ly6C): daily i.p. from day 10, 1 mg/kg (2-acetyl pyridine, methyl picolinate) or 0.1 mg/kg (AMPCA), day 21, FIGS. 8A-F; for bleomycin-induced decrease in weights of mice / bleomycin-induced collagen deposition in the lungs (Sirius red staining): daily i.p. from day 10, 1 mg/kg (2AP, MP) or 0.1 mg/kg (AMPCA); for bleomycin-induced decrease in weights of mice: 21 days, FIGS. 11A-D; for bleomycin-induced collagen deposition in the lungs (Sirius red staining): day 21, FIGS. 9-10. Format: in vivo, mouse. Here is the method: To determine if selected compounds affect pulmonary fibrosis in mice, 8-10 week old 26-30 g male C57BL/6 mice (Jackson, Bar Harbor, ME) were given an oropharyngeal aspiration of 3 units/kg bleomycin (2246-10, 50, BioVision Incorporated, Milpitas, CA) in 50 μl of 0.9% saline to induce symptoms of pulmonary fibrosis or oropharyngeal saline as a control following Current protocols in mouse biology 2, 167-175, (2012). Starting 10 days after bleomycin had been administered, some of the bleomycin-treated mice were given daily intraperitoneal injections of 100 μl of PBS or 1 mg/kg 2-acetyl pyridine (sc-254121, Santa Cruz Biotechnology, Inc. Dallas, TX) or 1 mg/kg methyl picolinate (sc-228575, Santa Cruz Biotechnology, Inc.) or 0.1 mg/kg of 2-piperidinecarboxylic acid, 4-amino-1-methyl (A00285-13785-026, Sundia, Shanghai, China) in 100 μl PBS. At day 21, mice were sacrificed by CO2 inhalation, and bronchoalveolar lavage (BAL) fluid and cytospins of BAL cells were obtained as previously described in Current protocols in mouse biology 2, 167-175 (2012); Proceedings of the National Academy of Sciences of the United States of America 112, 11929-11934 (2015); Proceedings of the National Academy of Sciences of the United States of America 111, 18291-18296 (2014); Proceedings of the National Academy of Sciences of the United States of America 112, 8385-8390 (2015); and Public Library of Science ONE 9, e93730 (2014) (all hereby incorporated by reference). The total cells from cytospins were quantified as described previously in Current protocols in mouse biology 2, 167-175, (2012); and Public Library of Science ONE 9, e93730 (2014). The lungs were removed and inflated with Surgipath frozen section compound (3801480, Leica, Buffalo Grove, IL) and preserved at −80° C. 6-10 μm cryosections of lungs were placed on glass slides (48311-703, VWR). The experiment was performed in accordance with the recommendations in the Guide for the Care and Use of Laboratory Animals of the National Institutes of Health. The Texas A&M University Animal Use and Care Committee approved the protocol.
Cryosections were stained for collagen with 0.1% Sirius red (09400, Polysciences, Warrington, PA), in saturated picric acid (26853-07, Electron Microscopy Sciences, Hatfield, PA) for 15 minutes at room temperature. The sections were washed in 0.5% acetic acid in water (v/v) for 10 minutes with two washes at room temperature. After dehydrating the sections in ethanol, the sections were mounted in Permount mounting medium (17986-01, Electron Microscopy Sciences). The sections were imaged on a Nikon Microphot-FX (Nikon, Tokyo, Japan), and staining was quantified with ImageJ.
Immunohistochemistry on BAL cytospins was performed as described previously in Public Library of Science ONE 9, e93730 (2014); Proceedings of the National Academy of Sciences of the United States of America 111, 18291-18296 (2014); and Proceedings of the National Academy of Sciences of the United States of America 112, 8385-8390 (2015) using anti-CD11b (101202, clone M1/70 BioLegend, San Diego, CA) to detect blood and inflammatory macrophages, anti-CD11c (M100-3, clone 223H7, MBL International, Woburn, MA) to detect alveolar macrophages and dendritic cells, anti-CD45 (103102, clone 30-F11, BioLegend) for total leukocytes, anti-Ly-6G (127602, clone 1A8, BioLegend) to detect neutrophils, and anti-Ly-6C (128001, clone HK1.4, BioLegend) to detect a variety of inflammatory immune system cells, and with isotype-matched irrelevant antibodies (BioLegend) as controls.

SMILES strings stand for the structures. Some results are limits rather than exact numbers.

A word on the IC50: it is the concentration needed to halve the response being measured. As for `COC(=O)c1ccccn1` [Compound 6, methyl picolinate], the IC50 in test [1] was greater than 100 µM. For the same compound, in test [2], the “fibrosis-associated inflammation (BAL cell counts, CD11b, CD11c, CD45, Ly6G, Ly6C)” value (“fibrosis-associated inflammation” for short) is “can reduce fibrosis-associated inflammation”; the “bleomycin-induced decrease in weights of mice” value (“bleomycin-induced decrease” for short) is “attenuated”; the “bleomycin-induced collagen deposition in the lungs (Sirius red staining)” value (“bleomycin-induced collagen deposition” for short) is reported as “reduced”.

Take `CN1CCC(N)CC1C(=O)O` (stereo not drawn) [Compound 26, 2-piperidinecarboxylic acid, 4-amino-1-methyl]: the IC50 in test [1] worked out at 1e-05 µM. Also, in test [2], the “fibrosis-associated inflammation” value is “can reduce fibrosis-associated inflammation”; the “bleomycin-induced decrease” value is “attenuated”; the “bleomycin-induced collagen deposition” value is “reduced”.

In the case of `CC(=O)c1ccccn1` [Compound 5, 2-acetylpyridine], the IC50 in test [1] is 32 µM. In test [2], the “fibrosis-associated inflammation” value was “can reduce fibrosis-associated inflammation”; the “bleomycin-induced decrease” value is on record as “attenuated”; the “bleomycin-induced collagen deposition” value is “reduced”.

The values are drawn from patent publication US12616674B2, “Anti-fibrotic NEU3 inhibitor compounds and methods of use” (The Texas A&M University System, priority 2019, dated 2026).
